Publication PMC12703428, “Development of Granzyme A Turn‐ON Fluorescent Activity‐Based Probes” (Chembiochem, 2025)
Square brackets hold non-standard residues; d marks the D form. Ends that are not written are not given here. Oic = O=C(O)[C@@H]1C[C@@H]2CCCC[C@@H]2N1; Tic = O=C(O)[C@@H]1Cc2ccccc2CN1

Molecular target: T1, recombinant human GzmA (hGzmA) (Homo sapiens, UniProt P12544)
T1 construct: active, mature form; purchased Enzo Life Sciences ALX-201-118-C010
T1 sequence (P12544 29-262): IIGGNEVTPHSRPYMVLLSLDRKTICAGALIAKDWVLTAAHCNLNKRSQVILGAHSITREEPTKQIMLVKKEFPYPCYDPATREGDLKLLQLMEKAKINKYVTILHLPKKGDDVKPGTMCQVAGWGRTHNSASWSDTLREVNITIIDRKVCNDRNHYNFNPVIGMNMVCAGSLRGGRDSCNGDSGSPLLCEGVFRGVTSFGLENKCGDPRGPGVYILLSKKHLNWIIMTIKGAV
Test: In-gel fluorescence labeling of recombinant active hGzmA
Assay type: biochemical
Settings: hGzmA 100 nM, 37 °C; for Labeling of recombinant hGzmA (in-gel Cy5 fluorescence): varying probe concentrations, 2 h, SDS-PAGE
Experimental: Figure 3 GzmA ABPs covalently and competitively label active human and mouse GzmA. […] Recombinant hGzmA (100 nM) was incubated with varying concentrations of each ABP at 37 °C. B) Competitive labeling of hGzmA. Recombinant hGzmA (100 nM) was preincubated with covalent inhibitors 1 or 2 (5 μM) for 2 h, followed by labeling with ABPs 3 –5 (50 nM) for 2 h at 37 °C. Note: Pro‐form of hGzmA (the first lane) is not effectively stained by SYPRO‐Ruby. C) Structure of qABP 6. D) Quenched natures of 5 and 6. […] F) Labeling of mGzmA (1 μM) with 5 and 6 (1 μM, 24 h, 37 °C). Protein samples were analyzed by SDS‐PAGE and in‐gel fluorescence scanning for Cy5 signal and SYPRO Ruby staining. […]
C. In-gel fluorescence imaging
For recombinant enzyme labeling, working solutions of hGzmA (purchased from R&D Systems, Cat. No. 2905-SE-010 for pro-from and Enzo Life Sciences, Cat. No.: ALX-201-118-C010 for active, mature form) were prepared by diluting a 12.6 µM stock in the following assay buffer: 50 […]
mM Tris, 100 mM NaCl, 5 mM CaCl2, 0.01% (v/v) Tween-20, pH 7.5. […]
In-gel fluorescence and
SYPRO-Ruby staining images were acquired on a Typhoon FLA9500 instrument, while western blot images were acquired on an AMHERST ImageQuant 800 instrument.
Conditions for probe/inhibitor treatment for in-gel fluorescence analysis: Inhibitors and probes were incubated with active (or pro-) GzmA followed by treatment with 4X SDS reducing sample buffer. Samples were then heated to 100 °C for 5 min, brought to room temperature, and centrifuged. 20 µL of each sample was loaded onto a 15% polyacrylamide gel, which was then subjected to electrophoresis followed by the acquisition of in-gel fluorescence images. GzmA labeling was confirmed by western blotting, while protein loading was confirmed with SYPRO-Ruby staining. Incubation conditions for each figure/experiment are described below:
Conditions for Figure 3A: For labeling comparison between 3, 4, and 5, 100 nM of human GzmA was incubated with various concentrations of each probe for 2 h at 37 °C. For time-dependent labeling, 50 nM of 5 was incubated with 100 nM of human GzmA at 37 °C for the specified durations. Final reaction volume for both was 20 µL.
Conditions for Figure 3B: 100 nM of human GzmA was incubated with DMSO or 5 µM of 1 or 2 for 2 h at 37 °C in Eppendorf tubes. 0.5 µL of a 2 µM solution of 3, 4, or 5 in DMSO was then spiked into the Eppendorf tube, yielding a final probe concentration of 50 nM. The solution was incubated for another 2 h at 37 °C. Final reaction volume was 20 µL.
Conditions for Figure 3E: 100 nM of human GzmA was incubated with various concentrations of 5 or 6, respectively, for 2 h at 37 °C. Final reaction volume was 20 µL.
Conditions for Figure 3F: 1 µM of mouse GzmA was incubated with 1 µM of 5 or 6, respectively, for 24 h at 37 °C. Final reaction volume was 20 µL.
Conditions for Figure 4A: 1 mg/mL of lysates was incubated with various concentrations of 5 or 6, respectively, for 1 h at 37 °C.
Conditions for Figure 4C: Various concentrations of probes 3-6 were incubated with 1x10^6 NK-92 cells for 2 h at 37 °C in a humidified incubator. Cells were centrifuged, washed with PBS (x2) and lysed with ~40 µL of ice-cold RIPA buffer. Lysates were collected, protein concentration was measured with PIERCE BCA protein assay and samples were analyzed with in-gel fluorescence and GzmA western blotting. […]
All flow cytometry data were collected on BD LSRFortessa and FACSymphony A5 Cell Analyzers and analyzed with FlowJo software. Briefly, cells were processed according to the intended protocols for each experiment. Thereafter, cells were pelleted, fixed in the dark for 20 min at room temperature (Fixation buffer: BioLegend #420801), and pelleted again by centrifugation. Fixed cells were then resuspended in 1x intracellular staining perm wash buffer (BioLegend #421002), followed by centrifugation two times. Fixed/Permeabilized cells were then resuspended in […]

IGNR [compound 5]
Concentration and time dependence of labeling of active hGzmA (time course with 50 nM probe): concentration‐ and time‐dependent labeling
Labeling of recombinant hGzmA (in-gel Cy5 fluorescence): efficiently label recombinant human GzmA (hGzmA) at submicromolar concentrations

[Tic]G[Oic]R [compound 6]
Labeling of recombinant hGzmA (in-gel Cy5 fluorescence): efficiently (and slightly more strongly than 5) labeled

GFFR [compound 7]
Labeling of recombinant hGzmA (in-gel Cy5 fluorescence): lower labeling efficiency for both hGzmA and mGzmA compared with probes 5 and 6
